This is an account of results in ChEMBL document CHEMBL5360542, “Current development of β-carboline derived potential antimalarial scaffolds” (Eur J Med Chem, 2023).

Type in all cases: functional, organism-based
Experiment [1] deals with Plasmodium falciparum. Briefly: Antimalarial activity against Plasmodium falciparum 3D7 infected in human A positive erythrocytes assessed as reduction in parasite growth incubated for 24 hrs by [3H]hypoxanthine based scintillation counting analysis. To be noted: 3D7, Erythrocyte.
In experiment [2] the test system is Plasmodium falciparum. Briefly: Antimalarial activity against chloroquine-resistant Plasmodium falciparum K1 infected in human A positive erythrocytes assessed as reduction in parasite growth incubated for 24 hrs by [3H]hypoxanthine based scintillation counting analysis. To be noted: K1, Erythrocyte.
For experiment [3], the system named is Plasmodium falciparum. Briefly: Antiplasmodial activity against chloroquine-sensitive erythrocyte stage Plasmodium falciparum 3D7 assessed as inhibition of parasite growth incubated for 3 days by ELISA. To be noted: 3D7, Erythrocyte, 72 h.
For experiment [4], the system named is Plasmodium falciparum. In words: Antiplasmodial activity against chloroquine-resistant erythrocyte stage Plasmodium falciparum Dd2 assessed as inhibition of parasite growth incubated for 3 days by ELISA. To be noted: 72 h. For orientation: An ELISA detects its analyte on a solid surface through an enzyme-linked reagent.
Experiment [5] deals with Plasmodium falciparum. In words: Antimalarial activity against chloroquine-sensitive Plasmodium falciparum 3D7 assessed as reduction in parasite growth.

Consider `CCN(CC)CCCNc1nccc2c1[nH]c1ccc(Cl)cc12`, for which the IC50 (commonly the concentration that inhibits the measured activity by half) in the experiment on Plasmodium falciparum [1] was 150 nM.
Consider `CCN(CC)CCCNc1nccc2c1[nH]c1ccc(F)cc12`, for which the half-maximal inhibitory concentration (IC50) in the experiment on Plasmodium falciparum [1] came out at 600 nM; in the experiment with Plasmodium falciparum [2], 300 nM.
As for `Clc1ccc2[nH]c3c(N4CCC(N5CCCC5)CC4)nccc3c2c1`, the results for the IC50 with Plasmodium falciparum [1] and with Plasmodium falciparum [2] were 930 nM and 1030 nM, respectively.
For `Clc1ccc2[nH]c3c(N4CCC(N5CCCCC5)CC4)nccc3c2c1`, the figures for the IC50 in the experiment on Plasmodium falciparum [1] and in the experiment on Plasmodium falciparum [2] were 10200 nM and 2660 nM, respectively.
For `CCN(CC)C1CCN(c2nccc3c2[nH]c2ccc(Cl)cc23)CC1`, in that order: 1600 nM and 1180 nM.
In the case of `COc1ccc(/C=C/C(=O)NCCn2c3cc(OC)ccc3c3ccnc(C)c32)cc1`, the half-inhibitory concentration (IC50) with Plasmodium falciparum [3] came to 260 nM; in the experiment on Plasmodium falciparum [4], 490 nM.
In the case of `C=C(C)CC1OC(C)=Cn2c3ccccc3c3cc(C(=O)OC)nc1c32` (centres undefined), the half-inhibitory concentration (IC50) in the experiment on Plasmodium falciparum [5] is more than 5000 nM.
As for `CCN(CC)CCCC(C)Nc1nccc2c1[nH]c1ccc(F)cc12` (centres undefined), the figures for the IC50 in the experiment with Plasmodium falciparum [1] and in the experiment on Plasmodium falciparum [2] were 370 nM and 1200 nM, respectively.
With `COC(=O)c1cc2c3cc(Br)ccc3n3c2c(n1)COC(C)=C3`, the IC50 with Plasmodium falciparum [5] was more than 5000 nM.
Take `Cc1nccc2c1[nH]c1cc(OCCNC(=O)/C=C/c3cccc(Br)c3)ccc12`: the half-maximal inhibitory concentration (IC50) in the experiment on Plasmodium falciparum [3] is 370 nM; in the experiment with Plasmodium falciparum [4], 480 nM.
For `COc1ccc2c3ccnc(C)c3n(CCNC(=O)/C=C/c3ccc(F)cc3)c2c1`, in that order: 90 nM and 330 nM.
For `COc1ccc2c3ccnc(C)c3n(CCNC(=O)/C=C/c3cccc(F)c3)c2c1`, in that order: 70 nM and 780 nM.
On to `COc1ccc2c3ccnc(C)c3n(CCNC(=O)/C=C/c3cccc(Br)c3)c2c1`, for which the values for the half-maximal inhibitory concentration (IC50) in the experiment on Plasmodium falciparum [3] and in the experiment on Plasmodium falciparum [4] were 70 nM and 410 nM, respectively.
For `COc1ccc(/C=C/C(=O)NCCOc2ccc3c(c2)[nH]c2c(C)nccc23)cc1`, in that order: 210 nM and 1090 nM.
For `Cc1nccc2c1[nH]c1cc(OCCNC(=O)/C=C/c3cccc(F)c3)ccc12`, in that order: 2750 nM and 5010 nM.
With `Clc1ccc2[nH]c3c(NCCN4CCOCC4)nccc3c2c1`, the half-maximal inhibitory concentration (IC50) with Plasmodium falciparum [1] turned out to be 2350 nM; in the experiment on Plasmodium falciparum [2] it was 4950 nM.
Consider `C/C(=C\c1ccccc1)C(=O)NCCOc1ccc2c(c1)[nH]c1c(C)nccc12`, for which the IC50 is 6780 nM in the experiment on Plasmodium falciparum [3] and 19500 nM in the experiment with Plasmodium falciparum [4].
Consider `COC(=O)c1cc2c3ccccc3n3c2c(n1)COC(C)=C3`, for which the IC50 with Plasmodium falciparum [5] was more than 5000 nM.
For the compound `Clc1ccc2[nH]c3c(N4CCC(N5CCOCC5)CC4)nccc3c2c1`, the results for the concentration for half-maximal inhibition (IC50) in the experiment with Plasmodium falciparum [1] and with Plasmodium falciparum [2] were 5320 nM and 1900 nM, respectively.
Take `COc1ccc2c3ccnc(C)c3n(CCNC(=O)/C=C/c3ccc(Cl)cc3)c2c1`: the IC50 was determined as 40 nM with Plasmodium falciparum [3] and 170 nM with Plasmodium falciparum [4].
On to `Clc1ccc2[nH]c3c(NCCCn4ccnc4)nccc3c2c1`, for which the 50% inhibitory concentration (IC50) in the experiment with Plasmodium falciparum [1] worked out at 450 nM; with Plasmodium falciparum [2], 920 nM.
In the case of `Cc1nccc2c1[nH]c1cc(OCCNC(=O)/C=C/c3ccccc3F)ccc12`, the concentration for half-maximal inhibition (IC50) turned out to be 930 nM in the experiment on Plasmodium falciparum [3] and 3920 nM in the experiment with Plasmodium falciparum [4].
`CCN(CC)CCCC(C)Nc1nccc2c1[nH]c1ccc(Cl)cc12` (centres undefined): the half-inhibitory concentration (IC50) in the experiment with Plasmodium falciparum [1] was determined as 170 nM; in the experiment with Plasmodium falciparum [2], 240 nM.
As to `Cc1nccc2c1[nH]c1cc(OCCNC(=O)/C=C/c3ccc(Cl)cc3)ccc12`, the concentration for half-maximal inhibition (IC50) with Plasmodium falciparum [3] was 320 nM; in the experiment with Plasmodium falciparum [4], 400 nM.
Regarding `Cc1nccc2c1[nH]c1cc(OCCNC(=O)/C=C/c3ccc(F)cc3)ccc12`, the results for the half-inhibitory concentration (IC50) in the experiment on Plasmodium falciparum [3] and in the experiment with Plasmodium falciparum [4] were 150 nM and 690 nM, respectively.
Turning to `Cc1nccc2c1[nH]c1cc(OCCNC(=O)/C=C/c3ccccc3)ccc12`, the figures for the half-maximal inhibitory concentration (IC50) with Plasmodium falciparum [3] and with Plasmodium falciparum [4] were 980 nM and 4700 nM, respectively.
In the case of `C/C=C\CC1OC(C)=Cn2c3ccccc3c3cc(C(=O)OC)nc1c32` (centres undefined), the half-maximal inhibitory concentration (IC50) in the experiment on Plasmodium falciparum [5] was more than 5000 nM.
Take `COc1ccc2c3ccnc(C)c3n(CCNC(=O)/C=C/c3ccccc3)c2c1`: the results for the IC50 in the experiment with Plasmodium falciparum [3] and with Plasmodium falciparum [4] were 490 nM and 1110 nM, respectively.
`C=C(C#N)C1OC(C)=Cn2c3ccccc3c3cc(C(=O)OC)nc1c32` (centres undefined): in the experiment on Plasmodium falciparum [5], the concentration for half-maximal inhibition (IC50) is more than 5000 nM.
For `Fc1ccc2[nH]c3c(NCCCn4ccnc4)nccc3c2c1`, the IC50 came out at 200 nM in the experiment on Plasmodium falciparum [1] and 410 nM with Plasmodium falciparum [2].
